Experimental data published in US20240041851A1 (priority 2020, published 2024).
Where two headings read alike, the source gives them in different places.

Experiments:
SARS-CoV-2 [1] = format: cell-based; conditions: for rescue of virion production in MTX-treated cells: thymidine or 1 mM formate added to 1 μM MTX, 48 hours
RNA flavivirus Zika = conditions: cited from earlier work
SARS-CoV-2 [2] = experiment: Simultaneous Stellaris FISH and immunofluorescence: viral +strand gRNA and nucleocapsid protein (Np); format: cell-based; conditions: for restoration of viral gRNA levels in MTX-treated cells: 10011M thymidine or 1 mM formate added to 1 μM MTX; for restoration of viral gRNA levels in MTX-treated cells / rescue of translation of viral Np in MTX-treated cells: 48 hours; for rescue of translation of viral Np in MTX-treated cells: thymidine or 1 mM formate added to 1 μM MTX
[3] = tested on: SARS-CoV-2 infected Vero E6 TMPRSS2+ cells; experiment: Live cell number (cytopathic effect) quantification assay, Viral Tox-Glo; format: cell-based, African Green Monkey; conditions: for rescue of CPE in MTX-treated cells: thymidine or 1 mM formate added to 1 μM MTX, 48 hours

CN(Cc1cnc2nc(N)nc(N)c2n1)c1ccc(C(=O)N[C@@H](CCC(=O)O)C(=O)O)cc1 [methotrexate]
diminished secretion of infectious virion (SARS-CoV-2 [1]): ~2 log | replication of the RNA flavivirus Zika (RNA flavivirus Zika): impair replication | Np levels (SARS-CoV-2 [2]): reduced | viral gRNA levels (SARS-CoV-2 [2]): reduced | virus-induced CPE [3]: significantly blocked virus-induced CPE

CCCCS(=N)(=O)CCC(N)C(=O)O [BSO, L-buthionine-sulfoximine]
Np levels (SARS-CoV-2 [2]): did not have any apparent effect | viral gRNA levels (SARS-CoV-2 [2]): did not have any apparent effect

Cc1n[nH]c2c1C(c1cc(CO)cc(-c3ccccc3)c1)(C(C)C)C(C#N)=C(N)O2 (centres unmarked) [SHIN1]
reduction of infectious virus titer (SARS-CoV-2 [1]): ~1 log | +strand gRNA levels (SARS-CoV-2 [2]): diminished | nucleoprotein levels (SARS-CoV-2 [2]): diminished | viral CPE [3]: induced resistance to viral CPE

O=c1[nH]cnc2nc[nH]c12 [hypoxanthine]
reversal of all effects of MTX (CPE, gRNA, Np, infectious virion) (SARS-CoV-2 [1]): could be reversed

O=C(COc1ccc(Cl)cc1)NC1CCC(NC(=O)COc2ccc(Cl)cc2)CC1 (centres unmarked) [ISRIB]
Np expression (SARS-CoV-2 [2]): did not appreciably diminish | viral gRNA expression (SARS-CoV-2 [2]): did not appreciably diminish | number of live cells [3]: increased the number of live cells

C/C=C(\C)[C@H](O)[C@H](C)/C=C(C)/C=C/C/C(C)=C/Cc1nc(OC)c(OC)c(O)c1C [Piericidin A]
secreted virus levels (SARS-CoV-2 [1]): did not have a major impact | secreted virus levels (SARS-CoV-2 [1]; listed as PierA): did not reduce viral replication | Np levels (SARS-CoV-2 [2]): did not have a major impact | viral gRNA levels (SARS-CoV-2 [2]): did not have a major impact | viral CPE [3]: reduced viral CPE

O=C[O-].[Na+] [formate, sodium formate]
reversal of SHIN1 effects (virus titer, gRNA, nucleoprotein, CPE) (SARS-CoV-2 [1]; 1 mM formate added to 10 μM SHIN1, 48 hours): fully reversed | rescue of virion production in MTX-treated cells (SARS-CoV-2 [1]): unable to rescue | restoration of viral gRNA levels in MTX-treated cells (SARS-CoV-2 [2]): could only partially restore | rescue of translation of viral Np in MTX-treated cells (SARS-CoV-2 [2]): unable to rescue | rescue of CPE in MTX-treated cells [3]: unable to rescue

Cc1cn([C@H]2C[C@H](O)[C@@H](CO)O2)c(=O)[nH]c1=O [thymidine]
rescue of virion production in MTX-treated cells (SARS-CoV-2 [1]): unable to rescue | restoration of viral gRNA levels in MTX-treated cells (SARS-CoV-2 [2]): could only partially restore | rescue of translation of viral Np in MTX-treated cells (SARS-CoV-2 [2]): unable to rescue | rescue of CPE in MTX-treated cells [3]: unable to rescue
